How the values were obtained:
B16F10 cells = assay: Melanin content assay (amount of produced melanin); type: cell-based; conditions: α-MSH stimulated, sample 200 μg/mL (50 mg/L), 48 hours, arbutin 200 μg/mL as control
Method: To check a whitening effect of the samples of Examples and Comparative Examples, an ability of the samples of Examples and Comparative Examples to inhibit melanogenesis was evaluated using a melanin content assay (Eisinger M et al., 1982; Siegrist W and Eberle A N, 1986). Each of the samples of Examples and Comparative Examples was suspended at a concentration of 50 mg/L in purified water, and an amount of produced melanin was determined.
B16F10 cells were seeded at a concentration of 1.5×10^5 cells/well in a 60 mm culture dish, and then cultured for 24 hours. A melanogenesis-stimulating hormone, α-MSH (Sigma-Aldrich, St. Louis, Mo., USA), and each of the samples of Examples and Comparative Examples were added to a medium at a concentration of 200 μg/mL (Virador V M et al., 1999).
After 48 hours had elapsed, the cells were harvested, and then washed once with PBS. Thereafter, 120 μL of a 1 N NaOH lysis buffer was added thereto, and the resulting mixture was heated at 95° C. for 10 minutes to lyse the cells. The optical density at a wavelength of 450 nm was measured using a microplate reader. Here, arbutin at a concentration of 200 μg/mL was used as the control (Table 6).
In particular, the melanin production rates at different concentrations were measured in the case of Example 1 (FIG. 1).

[1] = Free radical scavenging activity by DPPH assay; type: biochemical; conditions: optical density at 540 nm; lower SC50 = higher activity
Method: Each of the extracts of Examples and Comparative Examples was suspended in purified water to evaluate a free radical scavenging activity of each of the extracts. A DPPH assay is a method of measuring an optical density at 540 nm to measure a level of discoloration caused by an inhibitor scavenging stable 2,2-diphenyl-1-picrylhydrazyl (DPPH) radicals. Vitamin C was used as the control, and a 50% scavenging concentration (SC50) of the DPPH radicals was measured. Then, the measured SC50 of the DPPH radicals was compared to that of the control (Table 3). In particular, the free radical scavenging activity of the sample of Example 1 at different concentrations was measured, and compared to that of the control (FIG. 1).

[2] = Free radical scavenging activity by ABTS assay; type: biochemical; conditions: measured at 732 nm; lower SC50 = higher activity
Method: Each of the extracts of Examples and Comparative Examples was suspended in purified water to evaluate a free radical scavenging activity of each of the extracts. […] Vitamin C was used as the control, and a 50% scavenging concentration (SC50) of the ABTS radicals was measured. Then, the measured SC50 of the ABTS radicals was compared to that of the control (Table 4). In particular, the free radical scavenging activities at different concentrations were measured in the case of Example 1, and compared to that of the control (FIG. 1).

women = assay: Skin elasticity-improving effect of formulated creams (Cutometer MPA580); type: in vivo; conditions: cream around the eyes twice a day for 12 weeks; Cutometer MPA580 R8 value
Method: A skin elasticity-improving effect of the cosmetic composition including each of the samples obtained in Examples and Comparative Examples was evaluated. The respective samples were formulated into creams having the same compositions. In this case, only the samples of Examples 1 to 9 and Comparative Examples 1 to 12 differed. Healthy women over the age of 20 years old (with an average age of 37 years old) were divided into groups, and instructed to apply the formulated creams of Examples and Comparative Examples onto their faces under conditions of a temperature of 24 to 26° C. and a humidity of 75%. The formulated creams were applied around the eyes twice (morning and evening) a day for 12 weeks, and the skin elasticity was measured using a skin elastometer (Cutometer MPA580 commercially available from Courage+Khazaka Electronic GmbH, Germany). The test results were expressed as R8 (R8 (week 12)−R8 (week 0)) values of the Cutometer MPA580, and the R8 values represented properties such as skin viscoelasticity.

SMILES | Melanin production rate (B16F10 cells) [%] | 50% Scavenging Concentration (SC50) of DPPH Radicals [1] [µg/mL] | 50% Scavenging Concentration (SC50) of ABTS Radicals [2] [µg/mL] | Skin elasticity-improving effect, R8 (week 12) − R8 (week 0) (women)
OC[C@H]1O[C@@H](Oc2ccc(O)cc2)[C@H](O)[C@@H](O)[C@@H]1O [Positive control, arbutin] | 38.2 |  |  | 
O=C1O[C@H]([C@@H](O)CO)C(O)=C1O [Control (Vitamin C), Vitamin C] |  | 8.7 | 8.7 | 0.92

— patent US10434057B2, “Cosmetic composition comprising osmanthus asiaticus extract and clematis apiifolia extract” (AMI COSMETIC CO., LTD., priority 2017, dated 2019)
